The text below walks through data of US20200278355A1, “CONJUGATED PROTEINS AND USES THEREOF” (THE SCRIPPS RESEARCH INSTITUTE, priority 2017, published 2020).

One test relates to KEAP1-WT NSCLC cells. Description: Anchorage-independent growth, KEAP1-WT NSCLC cells. Conditions: 5 μM. Type of test: cell-based, human. The source says: Based on its in situ activity (FIG. 6D and FIG. 12A, 12G) and selectivity (FIGS. 6A, 6B), BPK-29 was chosen for additional biological studies. […] Exogenous expression of […] the growth inhibition caused by BPK-29.

For the next test, the target named is T1, SCP2 (Homo sapiens, UniProt P22307).
T1 construct: H460 cells or H460 cells expressing luciferase in a 10 cm plate were incubated with indicated compounds; endogenous in cells; host or cells: H460
Description: isoTOP-ABPP of compound-treated H460 cells: SCP2. Conditions: SCP2 C94; 40 μM. It counts as cell-based. On the procedure: For analysis of NR0B1 ligands or control compound reactivity, H460 cells or H460 cells expressing luciferase in a 10 cm plate were incubated with indicated compounds in serum/dye-free RPMI for 3 hours at 37° C. Cells were washed once ice-cold PBS and lysed in 1% Triton X-100 dissolved in PBS with protease inhibitors (Sigma) by sonication. Samples were clarified by centrifugation for 10 min at 16,000×g. Lysate was adjusted to 1.5 mg ml^−1 in 500 μL.
Samples were labeled for 1 h at ambient temperature with 100 μM iodoacetamide alkyne (1, IA-alkyne, 5 μL of 10 mM stock in DMSO). Samples were conjugated by copper-catalyzed azide-alkyne cycloaddition (CuAAC) to isotopically labeled, TEV-cleavable tags (TEV-tags). Heavy CuAAC reaction mixtures was added to the DMSO-treated or shGFP control samples and light CuAAC reaction mixture was added to compound-treated or shNRF2 samples. The CuAAC reaction mixture consisted of TEV tags (light or heavy, 10 μL of 5 mM stocks in DMSO, final concentration=100 μM), 1 mM tris(2-carboxyethyl)phosphine hydrochloride (TCEP; fresh 50× stock in water, final concentration=1 mM), ligand (17× stock in DMSO:t-butanol 1:4, final concentration=100 μM) and 1 mM CuSO4 (50× stock in water, final concentration=1 mM). The samples were allowed to react for 1 h at which point the samples were centrifuged (16,000×g, 5 min, 4° C.). […]

T1 sequence (P22307 whole entry): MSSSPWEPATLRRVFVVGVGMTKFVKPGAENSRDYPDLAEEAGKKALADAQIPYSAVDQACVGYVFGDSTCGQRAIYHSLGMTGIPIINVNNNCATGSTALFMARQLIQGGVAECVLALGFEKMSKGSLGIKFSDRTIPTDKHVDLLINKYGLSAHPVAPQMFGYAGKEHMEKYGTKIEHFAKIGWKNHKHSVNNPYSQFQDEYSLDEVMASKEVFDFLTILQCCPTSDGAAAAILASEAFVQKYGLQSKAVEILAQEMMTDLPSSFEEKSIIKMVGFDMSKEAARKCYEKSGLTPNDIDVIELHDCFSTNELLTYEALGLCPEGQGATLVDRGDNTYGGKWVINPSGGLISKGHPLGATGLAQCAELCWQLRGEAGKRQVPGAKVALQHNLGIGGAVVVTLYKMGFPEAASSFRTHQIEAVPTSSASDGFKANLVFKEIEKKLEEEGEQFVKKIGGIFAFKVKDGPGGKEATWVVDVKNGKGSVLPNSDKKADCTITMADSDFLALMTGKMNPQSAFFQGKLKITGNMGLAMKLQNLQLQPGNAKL

Regarding `O=C(c1ccc(N2CCOCC2)cc1)N1CCCC(N(Cc2ccccc2)C(=O)CCl)CC1` (centres unmarked) [BPK-29, N-benzyl-2-chloro-N-(1-(4-morpholinobenzoyl)azepan-4-yl)acetamide], the anchorage-independent growth result in the test with KEAP1-WT NSCLC cells is reported as “minimally affected”. For the same molecule, the “BPK-29-competed isoTOP-ABPP analysis” value at SCP2 was “Yes (Competed defined as showing R value ≥ 3.0 at 40 μM of test compound)”.
